Among the test systems are HT-29; NCI-H522; NCI-H23; HL-60; IGROV-1; M14; NCI/ADR-RES; UACC-257; CCRF-CEM; SF-539; OVCAR-8; SF-268; MDA-MB-231; MOLT-4; HCC 2998; EKVX; HOP-62; TK-10; SNB-75.
Holding throughout (experiment): NCI tumour cell line growth inhibition, 48 h

Structures are written as SMILES.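 Protocol summary: plate cells (96-well), add compound at 5 concentrations, incubate 48 h, interpolate endpoints linearly. GI50 marks 50% less growth.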 The source made the active and inactive calls. Rule as the data show it: active = GI50 up to about 1.1 µM and inactive = higher.

As to `Cc1ccc2c3c1O[C@H]1c4[nH]c5ccccc5c4C[C@@]4(O)[C@@H](C2)N(C)CC[C@]314`, the GI50 was 11.5 µM (inactive) in the test with HT-29; 19.1 µM (inactive) in the test on NCI-H522; 18.4 µM (inactive) in the test on NCI-H23; 14.6 µM (inactive) in the test with HL-60; 18 µM (inactive) in the test on IGROV-1; 16.2 µM (inactive) in the test on M14. Also, the GI50 was 17.8 µM (inactive) in the test on NCI/ADR-RES; 13.7 µM (inactive) in the test with UACC-257; 18.3 µM (inactive) in the test on CCRF-CEM; 15.7 µM (inactive) in the test with SF-539; 18.6 µM (inactive) with OVCAR-8; 17.1 µM (inactive) in the test with SF-268. The GI50 in the test with MDA-MB-231 is 15.2 µM (inactive); with MOLT-4 it was 16.4 µM (inactive).
Consider `CC(C)(C)OC(=O)C1/C(=C/CBr)CN1C(=O)OC(C)(C)C` (stereo unspecified), for which the GI50 in the test with HT-29 is 23.7 µM (inactive); with NCI-H23, 10.5 µM (inactive); with HL-60, 2.66 µM (inactive); in the test on IGROV-1 it was 5.5 µM (inactive); with M14, 16.6 µM (inactive); in the test on HCC 2998, 16.9 µM (inactive). Besides, the GI50 in the test with NCI/ADR-RES was 22.8 µM (inactive); with EKVX, 18 µM (inactive); with HOP-62, 15.8 µM (inactive); in the test on UACC-257, 16.3 µM (inactive); with CCRF-CEM, 2.64 µM (inactive); in the test with SF-539, 18.5 µM (inactive). For the same compound, the GI50 was 16.9 µM (inactive) in the test with TK-10, 16.9 µM (inactive) with OVCAR-8, 4.85 µM (inactive) with SF-268 and 6.56 µM (inactive) with MOLT-4.
As to `O=C1C=C2CC[C@H]3[C@@H]4CC[C@H](OC(=O)c5cccc6cc7ccccc7nc56)[C@H]4CC[C@@H]3[C@H]2CC1`, the GI50 in the test with HT-29 was > 100 µM (inactive); with NCI-H522, 25.5 µM (inactive); in the test with NCI-H23, > 100 µM (inactive); in the test with HL-60, > 100 µM (inactive); in the test with IGROV-1 it was > 100 µM (inactive); with M14 it was > 100 µM (inactive). Besides, the GI50 in the test with NCI/ADR-RES was > 100 µM (inactive); in the test with EKVX, 63.1 µM (inactive); in the test with SNB-75, > 100 µM (inactive); in the test on HOP-62 it was > 100 µM (inactive); in the test on UACC-257, > 100 µM (inactive); with CCRF-CEM, 24.7 µM (inactive). Besides, the GI50 is > 100 µM (inactive) in the test on SF-539; > 100 µM (inactive) in the test with TK-10; > 100 µM (inactive) in the test with OVCAR-8; > 100 µM (inactive) in the test with SF-268; 50.1 µM (inactive) with MDA-MB-231; 54.3 µM (inactive) in the test on MOLT-4.
For the compound `CCOC(=O)c1[nH]c2cccc3c2c1CC[C@H](NC(=O)C(F)(F)F)C3=O`, the GI50 in the test with HT-29 was > 100 µM (inactive); in the test with NCI-H23 it was 70.6 µM (inactive); in the test on HL-60, > 100 µM (inactive); in the test with IGROV-1, 75.5 µM (inactive); in the test with M14 it was 95.5 µM (inactive); in the test with HCC 2998 it was > 100 µM (inactive). For the same compound, the GI50 was 54 µM (inactive) in the test with NCI/ADR-RES; < 0.01 µM (active) in the test with EKVX; 24.3 µM (inactive) in the test with SNB-75; 24 µM (inactive) with HOP-62; 76.6 µM (inactive) with UACC-257; > 100 µM (inactive) in the test with CCRF-CEM. The GI50 is 38.1 µM (inactive) with SF-539; 46 µM (inactive) with TK-10; 19.7 µM (inactive) in the test with OVCAR-8; 37.1 µM (inactive) with SF-268; > 100 µM (inactive) in the test on MDA-MB-231; > 100 µM (inactive) with MOLT-4.

The values above are taken from ChEMBL document CHEMBL1201862, “PubChem BioAssay data set” (2004).
